The text below walks through data of PMC8942502 (Journal of Enzyme Inhibition and Medicinal Chemistry, 2022).

By IC50 is commonly meant the concentration that gives 50% inhibition.

Assay [1] concerns LNCaP cells. The assay is described as follows: MTT cell viability assay. The format is cell-based. The following applies: Homo sapiens. As to the method:
(§1) The tested compounds have been dissolved in DMSO at […] as stock concentration. All compounds have been tested at 10 μM and 50 μM as final concentrations for WB analysis. All compounds have been used at 0.1 μM, 5 μM, 10 μM, 25 μM, 50 μM as final concentration for proliferation assays. ORY-1001 (Selleck Catalog No. S7795) was used as reference compound at the concentration of 25 μM.
(§2) Cell culture LNCaP and U937 were purchased from ATCC (Milan, Italy). LNCaP were grown in Roswell Park Memorial Institute culture medium (RPMI; EuroClone, Milan, Italy), supplemented with 10% heat-inactivated foetal bovine serum (FBS; Sigma-Aldrich, Schnellendorf, Germany), antimicrobials (100 U/mL penicillin, 100 µg/mL streptomycin, 250 ng/mL amphotericin-B), 2 mM L-glutamine (EuroClone, Milan, Italy), and 1% essential amino acids solution (MEM; EuroClone, Milan, Italy). U937 were cultured in Dulbecco’s Modified Eagle Medium (DMEM; EuroClone, Milan, Italy), supplemented with 10% heat-inactivated foetal bovine serum (FBS; Sigma-Aldrich, Schnellendorf, Germany), antimicrobials (100 U/mL penicillin, 100 µg/mL streptomycin, 250 ng/mL amphotericin-B), 2 mM L-glutamine (EuroClone). Cells have grown in standard incubator conditions at 37 °C and 5% CO2.
(§3) Cell viability was determined on LNCaP and U937 cell lines using Thiazolyl Blue Tetrazolium Bromide [3-(4,5-dimethylthiazol-2-yl)-2,5-diphenyltetrazolium bromide] (MTT; Sigma-Aldrich, Schnellendorf, Germany) assay, following manufacturer’s instructions. A total of 5 × 10^3 cells/well were plated in a 96-well plate and treated, in duplicates, and repeated for three times, with the tested compounds at different concentrations 0.1 μM, 5 μM, 10 μM, 25 μM, 50 μM as final concentrations for 48 h, and 72 h. […] Absorbance was read at a wavelength of 570 nm with a TECAN M − 200 reader (Tecan, Männedorf, Switzerland).

Assay [2] deals with U937 cells. As to the kind of experiment: MTT cell viability assay. The format is cell-based. The following applies: 0.1-50 μM, 48 and 72 h. The method, then:
as §1, §2, §3
(In general: Formazan colour is commonly taken as a measure of viable cells.)

The test system of assay [3] is MAO-B. Particulars: @ 100 μM; Figure 1; cited from earlier work.
In assay [4] the test system is MV4-11 acute myeloid leukaemia (AML) cells. More on the design: method as in PMID 32003940. The following applies: cited from earlier work.
The test system of assay [5] is MAO-A. The following applies: @ 100 μM; Figure 1; cited from earlier work.
For assay [6], the system named is NB4 APL cells. Also on record: method as in PMID 32003940. Particulars: cited from earlier work.
In assay [7] the test system is LSD1. Particulars: Figure 1; cited from earlier work.
Assay [8] deals with T1, LSD1-CoREST complex (Homo sapiens, UniProt O60341).
T1 construct: made in house; host or cells: Escherichia coli
As to the kind of experiment: LSD1-CoREST inhibition assay (Amplex UltraRed/HRP, H3K4 peptide). The format is biochemical. The following applies: mean ± SD from two experiments in duplicate; 10 min preincubation.

The subject of assay [9] is LNCaP cells. More on the design: method as in PMID 30693539. The following applies: 72 h; cited from earlier work.

The structures appear in SMILES notation. Read-outs that look alike come from different tables or passages of the source.

For the compound `NC1CC1c1ccc(NC(=O)c2ccc(-c3ccccc3)cc2)cc1` (stereo not shown) [1a], the IC50 in assay [1] (48 h) was 34.1 ± 13.2 µM; in assay [1] (72 h), 25.4 ± 3.2 µM; in [7], 0.051 µM; in assay [8], 0.19 ± 0.03 µM. For the same compound, the “effect on cell viability in U937 cells” value in assay [2] is on record as “almost ineffective”. The MAO-B inhibition in assay [3] is 8%. For the same compound, the “cell growth arrest IC50” value in assay [4] is “low, single-digit micromolar levels”; in [6] it was “low, single-digit micromolar levels”. For the same compound, the MAO-A inhibition in assay [5] is listed as 2%.
With `C#CCN(C)CCCOc1ccc(Cl)cc1Cl` [clorgyline], the half-maximal inhibitory concentration (IC50) in [9] was 63.7 ± 8.2 µM.
